These results are taken from US4518602A, “Vinyl carboxylic acid derivatives, their production and use as inhibitors of thromboxane synthetase” (priority 1982, dated 1985).

Molecules are shown by their SMILES.

The target in this assay is T1, Thromboxane A2 (TXA2) synthetase (Equus caballus, UniProt A0A9L0T8T9).
T1 sequence (A0A9L0T8T9 2-534): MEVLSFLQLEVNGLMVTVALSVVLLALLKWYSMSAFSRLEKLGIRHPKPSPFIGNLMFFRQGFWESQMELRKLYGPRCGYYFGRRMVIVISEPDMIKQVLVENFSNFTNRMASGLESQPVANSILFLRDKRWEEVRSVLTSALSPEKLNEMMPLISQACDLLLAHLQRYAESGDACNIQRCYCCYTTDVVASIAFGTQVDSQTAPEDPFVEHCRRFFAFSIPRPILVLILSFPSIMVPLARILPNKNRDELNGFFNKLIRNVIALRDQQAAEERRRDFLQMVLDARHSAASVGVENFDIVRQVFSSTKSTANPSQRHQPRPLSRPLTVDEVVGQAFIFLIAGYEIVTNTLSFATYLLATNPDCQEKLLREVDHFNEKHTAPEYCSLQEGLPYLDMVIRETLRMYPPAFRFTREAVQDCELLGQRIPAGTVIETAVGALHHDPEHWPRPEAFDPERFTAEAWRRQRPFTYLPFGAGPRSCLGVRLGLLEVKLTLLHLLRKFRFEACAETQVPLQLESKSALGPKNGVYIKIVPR
Kind of assay: Inhibitory Action on Thromboxane A2 (TXA2) Synthetase (indomethacin-treated horse platelet microsomes, TXB2 radioimmunoassay). In kind it is biochemical. As for the experimental part:
As a specimen of TXA2 synthetase was employed horse platelet microsomes treated with indomethacin (indomethacin-treated horse platelet microsomes: IPM), which were prepared according to the method described by Needleman et al. (Science 193 163, 1976).
to 60 μl of 50 mM tris-buffer solution (pH 7.5) of IPM (containing 140 μg as protein) was added 60 μl of the buffer solution or the solution containing the test compounds at various concentrations. The mixtures were left standing for 5 minutes at room temperature. Then at 0° C. to 100 μl portion of the mixture was added 20 μl of the buffer solution containing 30 ng of prostaglandin H2 (PGH2). The mixtures were left standing for 5 minutes at 0° C. to cause formation of thromboxane A2 (TXA2). The reaction of thromboxane A2 production was stopped by the addition of 500 μl of the tris-buffer to the mixture. Using 50 μl of the mixtures, the quantitative determination of thromboxane B2 (TXB2), a stable metabolite of TXA2, was done by means of the radioimmunoassay (Shibouta et al., Biochem. Pharmacol. 28 3601, 1979).
The inhibitory activity of the compounds on TXA2 -synthetase was determined from the difference in the production of TXB2 between the test group and the control group.

As usually defined, the inhibition is the change of the read-out against control, counted positive when it falls. `O=C(O)C(CCC/C=C(/c1ccccc1)c1cccnc1)Sc1ccccc1` (stereo not drawn) [Compound 4-c] displayed an inhibition at 0.03 µM (3 × 10^-8 M) of 50%. Moreover, where the note is “10^-7 M”, at 0.1 µM the inhibition was 88%.

In turn, `CC(C)(CCCC/C=C(\c1ccccc1)c1cccnc1)C(=O)O` [Compound 1-l] had an inhibition at 0.03 µM (3 × 10^-8 M) of 48%. Also, at 0.1 µM the inhibition (10^-7 M) was 90%.

For the setting “3 × 10^-8 M”, `CC(C)(CCC/C=C(/c1ccccc1)c1cccnc1)C(=O)O` [Compound 2-b, (Z)-2,2-dimethyl-7-phenyl-7-(3-pyridyl)-6-heptenoic acid] returned an inhibition at 0.03 µM of 49%. Testing at 0.1 µM (10^-7 M) gave an inhibition of 90%.

Take `COC(=O)C(C)(CCC/C=C(\c1ccccc1)c1cccnc1)Sc1ccccc1` (stereo not drawn) [Compound 4-h]: the inhibition at 0.03 µM (3 × 10^-8 M) was found to be 30%. For the same molecule, at 0.1 µM the inhibition (10^-7 M) was 87%.

In turn, `O=C(O)C(CCC/C=C(\c1ccccc1)c1cccnc1)C1=CCCC1` (stereo not drawn) [Compound 5-i] gave an inhibition at 0.03 µM (3 × 10^-8 M) of 32%. The same molecule gave an inhibition at 0.1 µM (10^-7 M) of 77%.

Take `CC(C)(CCC/C=C(/c1cccnc1)c1cccs1)C(=O)O` [3'-p]: the “% Inhibition on thromboxane A2 synthetase” value (shortened to “% Inhibition”) is reported as 46% (3 × 10^-8 M) and 90% (10^-7 M).

In the case of `CSC(CCC/C=C(\c1ccccc1)c1cccnc1)C(=O)O` (stereo not drawn) [Compound 4-a], 0.03 µM produced 52% inhibition (3 × 10^-8 M). This molecule came in with an inhibition at 0.1 µM (10^-7 M) of 84%.

As to `CC(C)(CCCC/C=C(/c1ccccc1)c1cccnc1)C(=O)O` [Compound 1-m], the inhibition at 0.03 µM (3 × 10^-8 M) came to 44%. This molecule showed an inhibition at 0.1 µM (10^-7 M) of 92%.

The molecule `CC(CCCC=C(c1cccnc1)c1ccsc1)C(=O)O` (stereo not drawn) [Compound 2-e] showed an inhibition at 0.03 µM (3 × 10^-8 M) of 65%. Besides, the inhibition at 0.1 µM (10^-7 M) was 90%.

For the setting “3 × 10^-8 M”, `CC(C)(CCC/C=C(/c1cccnc1)c1cccs1)C(=O)O` [Compound 2-d, (Z)-2,2-dimethyl-7-(3-pyridyl)-7-(2-thienyl)-6-heptenoic acid] showed an inhibition at 0.03 µM of 62%. Under “10^-7 M”, this molecule returned an inhibition at 0.1 µM of 92%.

As for `Cc1ccc(S(=O)(=O)C(CCCC/C=C(/c2ccccc2)c2cccnc2)C(=O)O)cc1` (stereo not drawn) [Compound 1-b], for the setting “3 × 10^-8 M”, testing at 0.03 µM gave an inhibition of 45%. Moreover, under “10^-7 M”, the inhibition at 0.1 µM is 80%.

Take `COCC(CCC/C=C(\c1ccccc1)c1cccnc1)C(=O)O` (stereo not drawn) [3'-i]: 0.03 µM produced 42% inhibition (3 × 10^-8 M). Further, the inhibition at 0.1 µM (10^-7 M) came to 88%.

Consider `O=C(O)C(CCC/C=C(\c1ccccc1)c1cccnc1)Sc1ccccc1` (stereo not drawn) [Compound 4-b], for which the inhibition at 0.03 µM (3 × 10^-8 M) is 60%. For the same molecule, the inhibition at 0.1 µM (10^-7 M) is 93%.

Molecule `Cc1ccc(S(=O)(=O)C(CCCC/C=C(\c2ccccc2)c2cccnc2)C(=O)O)cc1` (stereo not drawn) [Compound 1-d] returned an inhibition at 0.03 µM (3 × 10^-8 M) of 57%. Where the note is “10^-7 M”, testing at 0.1 µM gave an inhibition of 85%.

Regarding `C#CCC(CCC/C=C(\c1ccccc1)c1cccnc1)C(=O)O` (stereo not drawn) [3'-h], the inhibition at 0.03 µM (3 × 10^-8 M) came to 66%. Where the note is “10^-7 M”, this molecule came in with an inhibition at 0.1 µM of 93%.

The molecule `N#Cc1ccc(CC(CCC/C=C(\c2ccccc2)c2cccnc2)C(=O)O)cc1` (stereo not drawn) [3'-n] displayed an inhibition at 0.03 µM (3 × 10^-8 M) of 57%. Besides, 0.1 µM produced 93% inhibition (10^-7 M).

Regarding `CC(C)(O)C(CCC/C=C(\c1ccccc1)c1cccnc1)C(=O)O` (stereo not drawn) [Compound 5-j], under “3 × 10^-8 M”, the inhibition at 0.03 µM is 41%. This molecule displayed an inhibition at 0.1 µM (10^-7 M) of 81%.

The molecule `O=C(O)C(CCCC=C(c1ccccc1)c1cccnc1)[S+]([O-])c1ccccc1` (stereo not drawn) [Compound 1-e] came in with an inhibition at 0.03 µM (3 × 10^-8 M) of 45%. Under “10^-7 M”, this molecule registered an inhibition at 0.1 µM of 80%.

`CC(C)(CCC/C=C(\c1ccccc1)c1cccnc1)C(=O)O` [Compound 2-a, (E)-2,2-dimethyl-7-phenyl-7-(3-pyridyl)-6-heptenoic acid] had an inhibition at 0.03 µM (3 × 10^-8 M) of 83%. The molecule also returned an inhibition at 0.1 µM (10^-7 M) of 92%.

For `CC(C)(CCC/C=C(\c1cccnc1)c1cccs1)C(=O)O` [Compound 2-c, (E)-2,2-dimethyl-7-(3-pyridyl)-7-(2-thienyl)-6-heptenoic acid], for the setting “3 × 10^-8 M”, the “% Inhibition” value was 92%. Besides, the inhibition at 0.1 µM (10^-7 M) stood at 97%.

`O=C(O)C(CCC/C=C(\c1cccnc1)c1cccs1)c1ccccc1` (stereo not drawn) [Compound 2-n]: the inhibition at 0.03 µM (3 × 10^-8 M) turned out to be 41%. The inhibition at 0.1 µM (10^-7 M) was 96%.

`C=C(C)C(CCC/C=C(\c1ccccc1)c1cccnc1)C(=O)O` (stereo not drawn) [Compound 5-g] yielded an inhibition at 0.03 µM (3 × 10^-8 M) of 59%. Under “10^-7 M”, the inhibition at 0.1 µM came to 92%.

In turn, `O=C(O)C(CCC/C=C(/c1ccccc1)c1cccnc1)Cc1ccccc1` (stereo not drawn) [3'-e] showed an inhibition at 0.03 µM (3 × 10^-8 M) of 33%. Besides, testing at 0.1 µM (10^-7 M) gave an inhibition of 90%.

On to `CC(C)(CCC/C=C(\c1cccnc1)c1cccs1)C(=O)O` [3'-o], for which the “% Inhibition” value (3 × 10^-8 M) is 60% and the “% Inhibition” value (10^-7 M) is 92%.
